Where a name gives a salt, the structure may show the parent alone.

One test has as its system PAF-induced death. Nature of the test: Prevention activity against PAF-induced death in mice. The settings on record: for (Mice survived)/(mice employed): PAF 50 μg/kg i.v., control 3/16. The class given is in vivo, mouse (male Jc1-ICR). As for the experimental part: Prevention activity against PAF-induced death in mice
The test drug was investigated for the preventive activity against shock death to be brought about within 30 min. after 50 μg/kg of PAF in the form of 0.1 ml/kg physiological saline solution was given intravenously to a male Jc1-ICR mouse. The test drug was administered intravenously 5 min. before the injection of PAF.
In accordance with the same procedure as described in Experiment Example 2, the test compounds were investigated for the preventive activity against PAF-induced death in mice.

Test [1] has as its system rabbit platelet aggregation by PAF. Nature of the test: Inhibitory activity on rabbit platelet aggregation by PAF. Format: cell-based. The settings on record: Oryctolagus cuniculus, PAF 1×10^-8 M, read-out: rate of inhibition of rabbit platelet aggregation by PAF; for inhibition at 1 µM: test drug 1 × 10^-6 M; for inhibition at 30 µM: test drug 3 × 10^-5 M; for inhibition at 3 µM: test drug 3 × 10^-6 M; for inhibition at 0.3 µM: test drug 3 × 10^-7 M.

The next test has as its system PAF-induced hypotension. Nature of the test: Restoring activity against PAF-induced hypotension. Format: in vivo, rat (male S.D.). Particulars: 3 min after PAF 1 μg/kg i.v., 1 min after test drug. As for the experimental part:
Restoring activity against PAF-induced hypotension
Male S.D. rats, aged 16 weeks, were employed.
Under anesthesia with pentobarbital, cannulas were inserted into the femoral artery and vein of rats for measurement of blood pressure and for administration of a drug, respectively. Three (3) minutes after intravenous administration of 1 μg/kg (0.25% BAS physiological saline solution; volume of 0.2 ml/kg) of PAF, a test drug (physiological saline solution; volume of 0.5 ml/kg) was administered intravenously, and blood pressure was measured for subsequent 1 hour.
The ratio of hypertension by the test drug to hypotension by PAF was taken as a restoration rate.
Restoration rate (%)=[(Blood pressure just before i.v. administration of a test drug)-(Blood pressure 1 min. after i.v. administration of a test drug)/(Blood pressure just before i.v. administration of PAF)-(Blood pressure just before i.v. administration of a test drug)]×100

In a further test the test system is HL-60 cells. In words: Effect on inducing differentiation of HL-60 cells (NBT-positive cells). The class given is cell-based, human. Particulars: 6 days; for Emax: Homo sapiens, HL-60, 144 h, at optimal conc., NBT-positive relative to live cells, read-out: Maximum differentiation extent: Differentiation. As for the experimental part:
Assay of the effects on inducing differentiation of HL-60 cells (human promyelocytic leukemia cells) and Neuro-2a cells (mouse neuroblastoma cells): RPMI-1640 medium (Flow Laboratories, Inc.) supplemented with 20% fetal calf serum (M.A. […] The culture was incubated at 37° C. in a 5% CO2 incubator for 6 days. […] The reaction was allowed to proceed at 37° C. for 20 minutes. The reaction was stopped by cooling with ice, and the cells were washed by means of centrifugation, followed by collecting 3-5×10^4 cells and by subjecting to centrifugation using Cytospin centrifuge to prepare a cell smear, which was fixed with methanol and stained with Kernechtrot solution. On each cell smear, the percentage of NBT-positive cells relative to live cells, […] by examination of a minimum of 200 cells, was expressed as the differentiation extent.

The mark [2] stands for this setting: Table 4, 1.0 mg/kg i.v., control 24%.
[3] abbreviates: Table 4, 0.3 mg/kg i.v., control 24%.

For the molecule `CCCCCCCCCCCCCCCCCCOCC(COC(=O)N(CC[N+](C)(C)C)C(C)=O)OC(C)=O` (stereo not drawn) [Example 3, 2-O-Acetyl-3-O-[N-acetyl-N-(2'-trimethylammonioethyl)]carbamoyl-1-O-octadecylglycerol iodide], the Survival rate with PAF-induced death (0.1 mg/kg i.v. 5 min before PAF 50 μg/kg i.v., control 19%) amounted to 38%; in the test with PAF-induced death (1.0 mg/kg i.v. 5 min before PAF 50 μg/kg i.v., control 19%), 100%. For the same molecule, the “(Mice survived)/(mice employed)” value with PAF-induced death (0.1 mg/kg i.v.) is given as 3/8; in the test on PAF-induced death (1.0 mg/kg i.v.), 8/8. The “prevention of PAF-induced death (conclusion)” value with PAF-induced death (0.1 and 1 mg/kg i.v.) is listed as “potent drug for prevention of PAF-induced death”. Further, in test [1], the inhibition at 1 µM was 86%. For the same molecule, the inhibition at 30 µM in test [1] was 100%. Besides, in test [1], the inhibition at 3 µM amounted to 100%. In addition, the Restoration rate in the test on PAF-induced hypotension (0.5 mg/kg i.v.) is 48%.
Molecule `CCCCCCCCCCCCCCCCCCNC(=O)OCC(COC(=O)N(CC[N+](C)(C)C)C(C)=O)OC` (stereo not drawn) [Example 25, 3-O-[N-Acetyl-N-(2'-trimethylammonioethyl)]carbamoyl-2-O-methyl-1-O-octadecylcarbamoylglycerol iodide] had a Survival rate in the test on PAF-induced death (setting [2]) of 94%. In test [1], the inhibition at 1 µM was determined as 40%, the inhibition at 30 µM worked out at 100% and the inhibition at 3 µM came to 100%. The molecule further registered a Restoration rate in the test on PAF-induced hypotension (1.0 mg/kg i.v.) of 69%.
The molecule `CCCCCCCCCCCCCCCCCCNC(=O)OCC(COC(=O)N(CC[N+]1(C)CCCC1)C(C)=O)OC` (stereo not drawn) [Example 35, 3-O-[N-Acetyl-N-(2'-N-methylpyrrolidinioethyl)]carbamoyl-2-O-methyl-1-O-octadecylcarbamoylglycerol hydrochloride] gave a Survival rate in the test with PAF-induced death (setting [2]) of 80%. Moreover, in test [1], the inhibition at 30 µM was 100%, the inhibition at 3 µM is 100% and the inhibition at 0.3 µM was determined as 45%. In the test with PAF-induced hypotension (0.5 mg/kg i.v.), this molecule showed a Restoration rate of 73%.
In the test with PAF-induced death (setting [2]), `CCCCCCCCCCCCCCCCCCNC(=O)OCC(COC(=O)N(CC[N+]1(C)CCCC1)C(=O)OC)OC` (stereo not drawn) [Example 43, 3-O-[N-Methoxycarbonyl-N-(2'-N-methylpyrrolidinioethyl)]carbamoyl-2-O-methyl-1-O-octadecylcarbamoylglycerol iodide] came in with a Survival rate of 100%. Further, in test [1], the inhibition at 30 µM was 100% and the inhibition at 3 µM is 100%. This molecule also displayed a Restoration rate in the test on PAF-induced hypotension (0.5 mg/kg i.v.) of 83%.
`CCCCCCCCCCCCCCCCCCNC(=O)OCC(COC(=O)N(CC1CCC[N+]1(C)CC)C(C)=O)OC` (stereo not drawn) [Example 45, 3-O-[N-Acetyl-N-(1'-ethyl-1'-methylpyrrolidinio-2'-yl)methyl]carbamoyl-2-O-methyl-1-O-octadecylcarbamoylglycerol iodide]: in the test with HL-60 cells, the “Maximum differentiation extent: Optimal conc.” value (“Maximum differentiation extent” for short) is 0.48 µg/mL and the Emax was determined as 72%. The molecule further had a Survival rate in the test on PAF-induced death (setting [3]) of 77%. In the test with PAF-induced death (setting [2]), the Survival rate is 100%. Also, in test [1], the inhibition at 30 µM came to 100%, the inhibition at 3 µM is 100% and the inhibition at 0.3 µM was 41%.
Consider `CCCCCCCCCCCCCCCCCCOCC(CN1CC(=O)N(CC[N+](C)(C)C)C1=O)OC(C)=O` (stereo not drawn) [Example 91, 1-[1-(2-Acetoxy-3-ocatadecyloxy)propyl]-3-(2-trimethylammonioethyl)hydantoin chloride.], for which, in the test on PAF-induced death (setting [2]), the Survival rate amounted to 100%. In test [1], the inhibition at 30 µM was determined as 100%, the inhibition at 3 µM came out at 100% and the inhibition at 0.3 µM was 78%. In addition, the Restoration rate in the test on PAF-induced hypotension (0.5 mg/kg i.v.) turned out to be 77%.
`CCCCCCCCCCCCCCCCCCOCC(CN1CC(=O)N(CC[n+]2ccsc2)C1=O)OC(C)=O` (stereo not drawn) [Example 92, 1-[1-(2-Acetoxy-3-octadecyloxy)propyl]-3-(2-thiazolioethyl)hydantoin chloride] yielded a Survival rate with PAF-induced death (setting [3]) of 77%. Besides, the Survival rate in the test with PAF-induced death (setting [2]) amounted to 100%. In test [1], the inhibition at 30 µM came out at 100% and the inhibition at 3 µM came to 100%. In the test with PAF-induced hypotension (0.5 mg/kg i.v.), this molecule showed a Restoration rate of 77%.
Consider `CCCCCCCCCCCCCCCCCCNC(=O)OCC(COC(=O)N(Cc1cccc[n+]1C)C(C)=O)OC` (stereo not drawn) [Example 104, 3-O-[N-Acetyl-N-(N-methylpyridnio-2-yl)methyl]carbamoyl-2-O-methyl-1-O-octadecylcarbamoylglycerol chloride], for which, in test [1], the inhibition at 30 µM was 100%, the inhibition at 3 µM worked out at 100% and the inhibition at 0.3 µM amounted to 100%. Further, the Restoration rate with PAF-induced hypotension (0.1 mg/kg i.v.) was determined as 94%.
With `CCCCCCCCCCCCCCCCCCNC(=O)OCC(CNC(=O)N(Cc1cccc[n+]1C)C(C)=O)OC.[Cl-]` (stereo not drawn) [Example 106, 1-Methyl-2-[N-acetyl-N'-(3-octadecylcarbamoyloxy-2-methoxypropyl)ureido]methylpyridinium chloride], in the test with HL-60 cells, the “Maximum differentiation extent” value was 1.88 µg/mL and the Emax was 78%.
`CCCCCCCCCCCCCCCCCCNC(=O)OCC(CN1CC(=O)N(CC[N+](C)(C)C)C1=O)OC` (stereo not drawn) [Example 115, 1-[(2-Methoxy-3-octadecylcarbamoyloxy)propyl]-3-[2-(trimethylammonio)ethyl]hydantoin chloride]: in the test on HL-60 cells, the “Maximum differentiation extent” value was 1.25 µg/mL and the Emax came to 61%. Besides, in test [1], the inhibition at 30 µM worked out at 100%, the inhibition at 3 µM was determined as 100% and the inhibition at 0.3 µM amounted to 9%.
Regarding `CCCCCCCCCCCCCCCCNC(=O)OCC(COC(=O)N(Cc1cccc[n+]1CC)C(C)=O)OC` (stereo not drawn) [Example 169, 3-[N-Acetyl-N-(N'-ethylpyridinio-2-yl)methyl]carbamoyl-1-hexadecylcarbamoyl-2-methylglycerol chloride], in the test with HL-60 cells, the “Maximum differentiation extent” value is 0.32 µg/mL and the Emax turned out to be 59%. Moreover, in test [1], the inhibition at 30 µM worked out at 100%, the inhibition at 3 µM worked out at 100% and the inhibition at 0.3 µM amounted to 100%.
On to `CCCCCCCCCCCCCCNC(=O)OCC(COC(=O)N(Cc1cccc[n+]1CC)C(C)=O)OC` (stereo not drawn) [Example 170, 3-[N-Acetyl-N-(N'-ethylpyridinio-2-yl)methyl]carbamoyl-2-methyl-1-tetradecylcarbamoylglycerol chloride], for which, in the test with HL-60 cells, the “Maximum differentiation extent” value came to 0.32 µg/mL and the Emax was 77%. In addition, in test [1], the inhibition at 30 µM is 100%, the inhibition at 3 µM is 100% and the inhibition at 0.3 µM amounted to 100%.
In the case of `CCCCCCCCCCCCCCCCCCNC(=O)OCC(COC(=O)N(Cc1cccc[n+]1CCCC)C(C)=O)OC` (stereo not drawn) [Example 177, 3-[N-Acetyl-N-(N'-butylpyridinio-2-yl)methyl]carbamoyl-1-octadecylcarbamoyl-2-methylglycerol chloride], in the test on HL-60 cells, the “Maximum differentiation extent” value turned out to be 0.48 µg/mL and the Emax stood at 91%.

In general, inhibition refers to the relative decrease from the control value, in per cent.

The values are drawn from US4737518A, “Lipid derivatives, their production and use” (Takeda Chemical Industries, Ltd., priority 1984, dated 1988).
